Source: US10975114B2, “Bis 2′-5′-RR-(3′F-A)(3′F-A) cyclic dinucleotide compound and uses thereof” (ADURO BIOTECH, INC., priority 2017, dated 2021)

Columns and labels:
[1] = system: THP1 cells (hSTING HAQ allele); experiment: THP1-Dual IRF-3 luciferase reporter assay without digitonin; assay type: cell-based, human; settings: 30 min compound incubation, overnight readout of secreted luciferase
Protocol: Cells were washed with fresh media and incubated for 30 min at 37° C. with 5% CO2 with compounds in 3-fold titration steps from 2,000 to 0.0338 μM in PB buffer (50 mM 4-(2-hydroxyethyl)-1-piperazineethanesulfonic acid, 100 mM KCl, 3 mM MgCl2, 0.1 mM dithiothreitol, 85 mM sucrose, 1 mM ATP, 0.1 mM GTP and 0.2% bovine serum albumin). After 30 minutes, cells were washed and fresh RPMI media containing 10% FBS was added, and cells were incubated at 37° C. with 5% CO2. Cell culture supernatants from each sample were collected after overnight incubation, and 10 μl of the cell culture supernatants was added to 50 μl QUANTI-Luc reagent (Invivogen). Type I interferon activation was determined by measuring secreted luciferase levels on a SpectraMax M3 spectrophotometer (Molecular Devices). The EC50 value for the same compounds as tested in Example 4 was determined from the dose-response curve for the 10 concentrations from the serial dilution of the compounds in this assay.

[2] = target: T1, hSTING REF allele (Homo sapiens, UniProt Q86WV6); experiment: ITC binding assay, hSTING REF allele; settings: 25° C., protein 0.1 mM, ligand 0.35 mM
T1 construct: made in house; host or cells: BL21 Rosetta 2 (DE3) E. coli
Protocol: (§1) The WT and REF proteins were similarly prepared for use in an ITC binding assay. Expression plasmids were transformed into BL21 Rosetta 2 (DE3) (EMD Millipore) E. coli cells for protein expression. 50 ml starter cultures were grown overnight in 2×YT supplemented with 50 μg/ml kanamycin and 30 μg/ml chloramphenicol. Multi-liter large scale cultures of the same growth media as the starter were inoculated at a ratio of 1:1,000 (V/V) and allowed to grow at 37° C. to an optical density of 0.6, cultures were then shifted to 18° C. Protein expression was induced by the addition of isopropyl β-D-1-thiogalactopyranoside to a final concentration of 0.3 mM. Protein expression was allowed to proceed for 18-24 hrs. Pelleted cells were resuspended in 50 mM Tris pH 7.5, 500 mM NaCl, 10% glycerol, 20 mM imidazole, 1 mM TCEP and complete protease inhibitor cocktail (Sigma). Cells were lysed by sonication (Branson) and insoluble material was removed by centrifugation. Proteins were purified on Ni-NTA resin and concentrated to >10 mg/ml. 6×H-SUMO-STING LBD was further purified by gel filtration chromatography using a High Load 26/600 Superdex 75 column (GE Healthcare) in a buffer of 20 mM Tris pH 7.5, 150 mM NaCl, 5% glycerol and 1 mM TCEP. Peak fractions were concentrated to between 10-15 mg/ml via ultrafiltration aliquoted and flash frozen in liquid nitrogen and stored at […]
The resulting amino acid sequences for the STING REF allele is as follows: • Allele Name: REF • Amino Acid Sequence:
(§2) Proteins were dialyzed overnight in 20 mM HEPES pH 7.5, 150 mM NaCl. Insoluble material was removed by centrifugation at 31,000×g. The invention compound 2′2′-RR-(3′F-A)(3′F-A) and comparison STING agonists 3′3′-RR-(2′F-A)(2′F-A); 2′3′-RR-(3′F-A)(2′F-A) were resuspended in dialysis buffer. The concentration of both the protein and ligands were checked by spectroscopy and adjusted if necessary.
(§3) STING protein was added to the ITC sample cell at a final concentration of 0.1 mM. The CDN ligand was at a final concentration of 0.35 mM in the syringe. […]

[3] = target: T2, wild type hSTING (Homo sapiens, UniProt Q86WV6, H232R); experiment: DSF Tm shift, purified hSTING WT (AA140-379); assay type: binding; settings: 1 mg/ml STING AA140-379, ligand 1 mM
T2 construct: 6xHis-SUMO (with TEV site) (N, cleaved yes); made in house; host or cells: Rosetta2 (DE3) E. coli
Protocol: (§4) Cells were grown in lysogeny broth at 37° C. until a […] absorbance of 0.6 was reached. […] Cells were lysed using an S-450D sonifier (Emmerson industrial) on ice. […] Protein was aliquoted, flash frozen in liquid nitrogen and stored at −80° C. until use.
(§5) The protein is heated in the presence of a dye that binds to and fluoresces in hydrophobic environments. The protein is thermally denatured by heating resulting in increased dye binding to the unfolded protein and fluorescence. The temperature midpoint (Tm) of a proteins denaturation is established by calculating the half maximal value of the denaturation curve. The temperature midpoint of the protein in the presence of a ligand is directly related to the affinity of the ligand for the protein and therefore its ability to stabilize the protein at higher temperatures.

[4] = target: T3, REF allele hSTING (Homo sapiens, UniProt Q86WV6); experiment: DSF Tm shift, purified hSTING REF allele (AA140-379); assay type: binding; settings: 1 mg/ml STING AA140-379, ligand 1 mM
T3 construct: 6xHis-SUMO (with TEV site) (N, cleaved yes); made in house; host or cells: Rosetta2 (DE3) E. coli
Protocol: as §4, §5

[5] = target: T4, HAQ allele hSTING (Homo sapiens, UniProt Q86WV6, G230A/H232R/R293Q); experiment: DSF Tm shift, purified hSTING HAQ allele (AA140-379); assay type: binding; settings: 1 mg/ml STING AA140-379, ligand 1 mM
T4 construct: 6xHis-SUMO (with TEV site) (N, cleaved yes); made in house; host or cells: Rosetta2 (DE3) E. coli
Protocol: as §4, §5

[6] = target: T5, hSTING WT (Homo sapiens, UniProt Q86WV6, H232R); experiment: ITC binding assay, hSTING WT; settings: 25° C., protein 0.1 mM, ligand 0.35 mM
T5 construct: made in house; host or cells: BL21 Rosetta 2 (DE3) E. coli
Protocol: as §1
The resulting amino acid sequence for the STING WT allele is as follows: • Allele Name: WT • Amino Acid Sequence:
as §2, §3

[7] = system: 4T1 mammary carcinoma; experiment: 4T1 mammary carcinoma dual-flank model, combination with anti-PD-1 antibody; assay type: in vivo, BALB/c mice
Protocol: (§6) To assess the ability of 2′2′-RR-(3′F-A)(3′F-A) to promote anti-tumor immunity in murine tumor models in combination with an antagonistic anti-PD-1 antibody, 6-8 week old female BALB/c mice (n=8/group) were implanted in both the left and the right flanks with 4T1 mammary carcinoma cells (2×10^5 cells in 100 aL PBS, day 0). Mice were treated with vehicle alone or 1 μg 2′2′-RR-(3′F-A)(3′F-A) in a total volume of 40 aL HBSS by IT injection using a 27 gauge needle when tumors reached a volume of approximately 40-50 mm^3 on day 8 post tumor implantation (indicated by dotted line on the x-axis in tumor growth graphs). Mice were given intraperitoneal (IP) injections of 200 μg control IgG or anti-PD-1 (clone RMP1-14, BioXCell) beginning on the day of 2′2′-RR-(3′F-A)(3′F-A) treatment and then continuing twice per week throughout the duration of the experiment. Some mice were given IP injection of 100 μg anti-CD8 (clone 2.43, BioXCell) on study days 6, 8, 10, 14, and 17 to deplete CD8^+ T cells. Tumors were measured twice weekly.

[8] = system: 4T1 mammary carcinoma; experiment: AH1-specific T cells in distal 4T1 tumor (TILs), with or without anti-PD-1; assay type: in vivo, BALB/c mice
Protocol: as §6, with “Some mice were given IP injection of 100 μg anti-CD8 (clone 2.43, BioXCell) on study days 6, 8, 10, 14, and 17 to deplete CD8^+ T cells.” left out
To directly quantify the effect of combining 2′2′-RR-(3′F-A)(3′F-A) with anti-PD-1 on tumor-specific T cells, a cohort of mice from Example 9 were euthanized on day 7 post IT injection and non-injected tumors dissociated into a single cell suspension. […] Data were acquired using a LSRFortessa X-20 cytometer with FACSDiva software (BD) and analyzed with FlowJo software (Tree Star).

[9] = system: 4T1 mammary carcinoma; experiment: 4T1 mammary carcinoma dual-flank model, single intratumoral injection; assay type: in vivo, BALB/c mice
Protocol: (§7) To assess the ability of 2′2′-RR-(3′F-A)(3′F-A) to promote anti-tumor immunity in a murine tumor model, 6-8 week old female BALB/c mice (n=8/group) were implanted in both the left and the right flanks with 4T1 mammary carcinoma cells (2×10^5 cells in 100 μL PBS). Mice were treated with 2′2′-RR-(3′F-A)(3′F-A) at 0.1, 1, 10 and 100 μg in a total volume of 40 μL HBSS and compared to Hank's Balanced Salt Solution (HBSS) vehicle control. Compound was administered when tumors reached a volume of approximately 40-50 mm^3 on day 8 post tumor implantation (indicated by dotted line on the x-axis in tumor growth graphs). The compound was administered by a single […] injection into the center of the tumor (intratumoral, IT) using a 27 gauge needle. Tumors were measured twice weekly.

[10] = system: 4T1 mammary carcinoma; experiment: Tumor-specific T cells in blood of 4T1 mice (AH1 tetramer flow cytometry); assay type: in vivo, BALB/c mice; settings: day 7 post IT injection, 0.1, 1 and 10 μg IT doses, compared to HBSS
Protocol: as §7
Lympholyte (Cedarlane) gradient-purified PBMCs (˜1×10^6) were pre-incubated with anti-CD16/32 monoclonal antibody to block potential non-specific binding and labeled with murine T-Select H-2L^d MuLV gp70 Tetramer-[…]-PE (SEQ ID NO: 20, AH1 peptide with PE fluorescent label, MBL), anti-CD4-BUV737 (RMA4-5), anti-CD8α-BUV395 (53-6.7) (BD Biosciences); anti-CD90.2 BV510 (30-H12) (BioLegend) and the Fixable LIVE/DEAD Near-IR viability dye (ThermoFisher). Data were acquired using a LSRFortessa X-20 cytometer with FACSDiva software (BD) and analyzed with FlowJo software (Tree Star).

[11] = 1 μg IT combined with anti-PD-1 antibody 200 μg IP twice per week

SMILES	EC50 ([1]; Homo sapiens, THP-1, 0.5 h)	Kd [2]	hSTING Tm Shift WT [3]	hSTING Tm Shift REF [4]	hSTING Tm Shift HAQ [5]	Kd [6]	EC50 [1]	cures, injected tumor ([7]; 1 μg IT + control IgG)	cures, non-injected tumor ([7]; 1 μg IT + control IgG)	cures, distal (non-injected) tumor [7, 11]	cures, primary (injected) tumor [7, 11]	tumor-specific T cell response in distal tumor ([8]; 1 μg IT alone, TILs day 7 post IT injection)	polyfunctional IFNγ+TNFα+ CD8 T cells specific for the AH1 peptide in the tumor microenvironment ([8]; 1 μg IT combined with anti-PD-1, TILs of non-injected tumor, day 7 post IT injection)	cures of the distal tumor ([9]; 10 μg single IT dose, n=8)	cures of the primary tumor ([9]; 10 μg single IT dose, n=8)	tumor inhibition in primary (injected) and distal (non-injected) flank tumor ([9]; single IT injection 0.1, 1, 10, 100 μg, compared to HBSS)	frequency of tumor-specific systemic T cells [10]
Nc1ncnc2c1ncn2[C@@H]1O[C@@H]2CO[P@@](=O)(S)O[C@@H]3[C@H](F)[C@@H](OC[P@@](=O)(S)O[C@H]2[C@H]1F)O[C@H]3n1cnc2c(N)ncnc21 [2′3′-RR-(3′F-A)(2′F-A), dithio-[Rp,Rp]-cyclic-[3′F-A(2′,5′)p-2′F-A(3′,5′)p]]	4500 nM	333 nM	14.5 °C	10.5 °C	26 °C	109 nM											
Nc1ncnc2c1ncn2[C@@H]1O[C@@H]2CO[P@@](=O)(S)O[C@H]3[C@@H](F)[C@H](n4cnc5c(N)ncnc54)O[C@@H]3CO[P@@](=O)(S)O[C@H]2[C@H]1F [3′3′-RR-(2′F-A)(2′F-A), (2R,3R,3aR,5R,7aR,9R,10R,10aR,12R,14aR)-2,9-bis(6-amino-9H-purin-9-yl)-3,10-difluoro-5,12-dimercaptooctahydro-2H,7H-difuro[3,2-d:3′,2′-j][1,3,7,9]tetraoxa[2,8]diphosphacyclododecine 5,12-dioxide]	15600 nM	591 nM				74 nM											
Nc1nc2c(ncn2[C@@H]2O[C@@H]3COP(=O)(O)O[C@H]4[C@@H](O)[C@H](n5cnc6c(N)ncnc65)O[C@@H]4COP(=O)(O)O[C@@H]2[C@@H]3O)c(=O)[nH]1 [2′3′-(G)(A)]							> 150000 nM										
Nc1ncnc2c1ncn2[C@@H]1O[C@@H]2CO[P@@](=O)(S)O[C@@H]3[C@H](F)[C@@H](CO[P@@](=O)(S)O[C@@H]1[C@@H]2F)O[C@H]3n1cnc2c(N)ncnc21 [2′2′-RR-(3′F-A)(3′F-A), (1S,3R,6R,8R,9S,11R,14R,16R,17R,18R)-8,16-bis(6-amino-9H-purin-9-yl)-17,18-difluoro-3,11-dimercapto-2,4,7,10,12,15-hexaoxa-3,11-diphosphatricyclo[12.2.1.1^6,9]octadecane 3,11-dioxide]	< 20000 nM	170 nM	13.9 °C	12.5 °C	19.7 °C	98 nM	16600 nM	25%	0%	62.5%	87.5%	measurable above background	statistically significant increase	37.5%	100%	potent dose-dependent tumor inhibition	significantly higher frequency
Nc1ncnc2c1ncn2[C@@H]1O[C@@H]2CO[P@@](=O)(S)O[C@@H]3[C@H](O)[C@@H](CO[P@@](=O)(S)O[C@@H]1[C@@H]2O)O[C@H]3n1cnc2c(N)ncnc21 [2′2′-RR-(A)(A), (1R,3R,6R,8R,9R,11R,14R,16R,17R,18R)-8,16-bis(6-amino-9H-purin-9-yl)-17,18-dihydroxy-3,11-dimercapto-2,4,7,10,12,15-hexaoxa-3,11-diphosphatricyclo[12.2.1.1^6,9]octadecane 3,11-dioxide]	> 150000 nM		3.4 °C	3.6 °C	5.1 °C												
